{"source": "patent EP1095657A2", "about": "“Compositions for the regulation of cytokine activity” (priority 1992, dated 1994)", "key": {"IDDM of NOD mice": {"test_system": "IDDM of NOD mice", "test": "Insulin dependent diabetes mellitus (IDDM) of NOD mice", "type": "in vivo"}, "[1]": {"test_system": "adjuvant arthritis in Lewis rats", "test": "Adjuvant arthritis (AA) in rats", "type": "in vivo"}, "ELAM-1": {"test_system": "ELAM-1", "test": "TNF-α-induced expression of adhesion molecules by endothelial cells (ELISA)", "conditions": "for Recombinant human TNFα-induced adhesion molecules (O.D 492): 1 h pretreatment of EC, TNFα alone 1.2±0.1"}, "ICAM-1": {"test_system": "ICAM-1", "test": "TNF-α-induced expression of adhesion molecules by endothelial cells (ELISA)", "conditions": "1 h pretreatment of EC, TNFα alone 2.2±0.2"}, "[2]": {"test_system": "mortality after gamma irradiation", "test": "Radioprotective effect in gamma-irradiated mice", "type": "in vivo, BALB/c mice", "protocol": "Groups of female BALB/c mice, 8 weeks old, 5-10 mice per group, were injected subcutaneously with either saline (0.1 ml, control), H-9392 (30 ng/mouse), or glucosamine (10,000 ng/mouse) 1 day before irradiation, and weekly thereafter until termination of the experiment on day 30. All the mice were irradiated to a dose of 700 rads using a ^60Co gamma radiation source.\nIn a separate experiment, groups of BALB/c mice (5 mice to a group) were likewise exposed to 750 rads of gamma-rays, except that these groups of mice were treated with test substances (saline at 0.1 ml per mouse; H-9392 at 0.3, 3, 30 and 300 ng/mouse; and glucosamine at 1, 10 and 100 µg/mouse) on the day before irradiation, on the sixth day after irradiation, and once again on the thirteenth day after irradiation only. All treatment ceased after the third and last administration."}, "[3]": {"test_system": "respiratory distress after aerosolized OVA challenge", "test": "Experimental allergic bronchial asthma in rats", "type": "in vivo, Brown Norway rats", "conditions": "30 ng s.c. on day 30, challenge on day 35; saline group Grade 3 or 4", "protocol": "To assess the ability of substance H-9392 to prevent a bronchial asthma attack, 6 male Brown Norway rats were primed to ovalbumin (OVA) by subcutaneous injection of 1 mg of OVA in suspension with 200 mg AlOH/ml 0.9% saline solution accompanied by intraperitoneal injection of 1 ml solution containing 6x10^6 heat killed Bordetella pertussis bacteria (Pasteur Merieux, S.V.), on day zero. Subsequent challenges consisted of a 5 minute period of inhalation of OVA (1 mg/ml solution) aerosolized in a Devilbiss Nebulizer operated at an airflow of 6 L/min. Respiratory Distress (RD) responses were scored as Grade 0, no signs of distress; Grade 1, tachypnea; Grade 2, moderate labored breathing; Grade 3 severe labored breathing with mouth open; Grade 4, loss of consciousness and muscular tone. Sixteen days following primary immunization all animals were exposed to an initial aerosolized challenge to establish the positive control. The animals were coded so that the observer was ignorant of the subject animal's history.\nOn day thirty, the animals were divided into 2 groups and given either saline (control Group A) or 30 ng of substance H-9392, s.c., (Group B) and challenged on day 35 as above."}, "[4]": {"test_system": "secretion of active TNF-α by activated human CD4+ T cells", "test": "Bioassay of TNF-α activity using human CD4+ T cells derived from PBLs (human PBL bioassay)", "conditions": "conc range of 1 µg/ml - 0.01 pg/ml; inconsistent = not the same result in all three bioassays"}, "[5]": {"test_system": "C57BL/6 skin grafts on BALB/c mice", "test": "Skin allograft rejection in mice", "type": "in vivo", "protocol": "The effect of H-9392 was also tested in skin graft rejection experiments in mice. In particular, skin grafts from C57BL/6 donor mice (H-2^b) were applied to recipient BALB/c mice (H-2^d) according to the method of Baharav, E. et al. J. Immunol. Methods (1986) 90:143-144. The number of days to rejection was measured by the sloughing of the graft. The number of days to rejection was determined for a control group (injected with saline only, 0.1 ml), and test groups that received 3 ng or 300 ng of H-9392 by subcutaneous injection one day before grafting and weekly thereafter. The results, which are graphically represented in FIGS. 40 and 40A, reveal that the 3 ng/mouse dose delayed the level of skin graft rejection at 50% by 5 days!"}, "LPS-induced uveitis": {"test_system": "LPS-induced uveitis", "conditions": "for Median Protein: LPS with saline 18.4, no LPS 0.36"}}, "note": "Read-outs that look alike come from different tables or passages of the source.", "data": [{"molecule": "O=C(O)C1=C[C@H](O)[C@@H](OS(=O)(=O)O)[C@H](O[C@H]2[C@H](O)[C@@H](NS(=O)(=O)O)C(O)O[C@@H]2CO)O1", "note": "(stereo partly drawn) [H-9392, 2-O-sulfate-4-deoxy-4-en-iduronic acid-(α-1,4)-2-deoxy-2-N-sulfateglucosamine]", "values": [{"measurement": "mice that had become diabetic", "setting": "IDDM of NOD mice; at 4.5 months, H-9392 30 ng/mouse, glucosamine 10,000 ng/mouse s.c., all control mice diabetic", "result": "less than 50%"}, {"measurement": "mice that had died, in words", "setting": "IDDM of NOD mice; by age 5 months, H-9392 30 ng, glucosamine 10,000 ng, all control mice had died", "result": "none"}, {"measurement": "suppression of the inflammation of AA", "setting": "[1]; 120 ng/rat or 0.6 ng/gm rat s.c. weekly from 1 day before induction, 24 days after induction", "result": "up to 90%"}, {"measurement": "effect on AA, in words", "setting": "[1]; weekly or daily, beginning at day 0 or at day 12", "result": "positive suppression of the severity of AA in all cases"}, {"measurement": "effect on AA at 30 days post-induction, in words", "setting": "[1]; weekly s.c. from day 12 to day 26, 120 ng disaccharide or 100 µg dexamethasone phosphate per rat", "result": "almost complete suppression"}, {"measurement": "Recombinant human TNFα-induced adhesion molecules (O.D 492)", "setting": "ELAM-1; 50 pg/ml, no TNFα 0.12±0.01", "result": "0.6±0.1", "unit": "O.D 492"}, {"measurement": "Recombinant human TNFα-induced adhesion molecules (O.D 492)", "setting": "ELAM-1; 100 pg/ml", "result": "0.9±0.07", "unit": "O.D 492"}, {"measurement": "inhibition of the up regulation of EC expression of adhesion molecules induced by TNF-α", "setting": "ELAM-1; ELAM-1 and ICAM-1 not told apart in the sentence", "result": "up to 50%"}, {"measurement": "Recombinant human TNFα-induced adhesion molecules (O.D 492)", "setting": "ICAM-1; 50 pg/ml, no TNFα 0.18±0.01", "result": "1.0±0.04", "unit": "O.D 492"}, {"measurement": "Recombinant human TNFα-induced adhesion molecules (O.D 492)", "setting": "ICAM-1; 100 pg/ml", "result": "1.4±0.03", "unit": "O.D 492"}, {"measurement": "mortality rate", "setting": "[2]; 700 rads, by day 30, s.c. 1 day before irradiation and weekly, H-9392 30 ng/mouse, glucosamine 10,000 ng/mouse, saline 100%", "result": 40, "unit": "%"}, {"measurement": "mice that had died by the thirtieth day after irradiation", "setting": "[2]; 750 rads, 30 ng/mouse, three administrations, 5 mice to a group", "result": "only one mouse"}, {"measurement": "activity in suppressing mortality after irradiation, in words", "setting": "[2]; 750 rads, three administrations, 300 ng H-9392, 1 µg glucosamine", "result": "moderate activity in suppressing mortality"}, {"measurement": "respiratory distress after challenge, in words", "setting": "[3]", "result": "mere tachypnea"}, {"measurement": "Bioassay of TNF Activity, in words", "setting": "[4]", "result": "Inconsistent"}, {"measurement": "delay of the level of skin graft rejection at 50%", "setting": "[5]; 3 ng/mouse s.c. one day before grafting and weekly thereafter", "result": 5, "unit": "days"}, {"measurement": "difference at 50% rejection relative to control, in words", "setting": "[5]; 300 ng/mouse s.c. one day before grafting and weekly thereafter", "result": "failed to produce a significant difference"}, {"measurement": "Median Protein", "setting": "LPS-induced uveitis; 32 ng/rat at Day 1", "result": 5.2, "unit": "mg/mL"}, {"measurement": "Median Protein", "setting": "LPS-induced uveitis; 500 ng/rat at Day 1", "result": 4.8, "unit": "mg/mL"}, {"measurement": "suppression of the inflammation relative to control", "setting": "LPS-induced uveitis; single administration, at either dosage", "result": "over 70%"}]}]}
